Experimental findings from ChEMBL document CHEMBL1201862, “PubChem BioAssay data set” (2004) are described below.

Structures are written as SMILES. The source made the active and inactive calls.

One data set addresses Cytochrome P450 2C19 (Homo sapiens, UniProt P33261). Kind of data set: Cytochrome panel assay with activity outcomes. Panel member name: p450-cyp2c19 Compounds with AC50 equal or less than 10 uM are considered active. In kind it is functional. The settings on record: read-out: AC50.
The target of the next data set is Cytochrome P450 2C9 (Homo sapiens, UniProt P11712).
Sequence of Cytochrome P450 2C9 (P11712 whole entry): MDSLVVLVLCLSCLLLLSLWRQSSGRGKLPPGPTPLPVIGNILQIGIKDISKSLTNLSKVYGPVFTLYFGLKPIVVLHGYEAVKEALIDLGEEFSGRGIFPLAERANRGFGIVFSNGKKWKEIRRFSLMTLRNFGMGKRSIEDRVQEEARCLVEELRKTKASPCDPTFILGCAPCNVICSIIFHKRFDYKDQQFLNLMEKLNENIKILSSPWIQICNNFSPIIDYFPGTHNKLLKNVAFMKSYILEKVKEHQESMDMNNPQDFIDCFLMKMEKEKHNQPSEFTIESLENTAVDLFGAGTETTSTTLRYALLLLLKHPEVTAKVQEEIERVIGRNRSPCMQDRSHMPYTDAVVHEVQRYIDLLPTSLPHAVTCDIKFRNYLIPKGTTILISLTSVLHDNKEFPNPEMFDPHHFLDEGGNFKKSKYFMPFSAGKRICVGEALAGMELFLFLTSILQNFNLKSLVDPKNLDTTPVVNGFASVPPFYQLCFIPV
Data set [1] can be described thus: cells. In kind it is functional, cell-based.
A further data set has as its system INS1. The data set can be described thus: INS-1E survival protection against cytokine death – cell-based, luminescence, retest, dose response (AID 449756).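 Further: cell death triggered by IL-1 beta plus TNF-alpha plus IFN-gamma mixture; protective hits raise ATP signal compared with cytokine alone wells.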 In kind it is functional. Particulars: Rattus norvegicus.
Data set [2] in a line: cells. In kind it is functional, cell-based. The source holds these as a separate data set.
In the next data set the target is T1, Aminopeptidase N (Plasmodium falciparum FcB1/Columbia, UniProt O96935).
T1 sequence (O96935 whole entry): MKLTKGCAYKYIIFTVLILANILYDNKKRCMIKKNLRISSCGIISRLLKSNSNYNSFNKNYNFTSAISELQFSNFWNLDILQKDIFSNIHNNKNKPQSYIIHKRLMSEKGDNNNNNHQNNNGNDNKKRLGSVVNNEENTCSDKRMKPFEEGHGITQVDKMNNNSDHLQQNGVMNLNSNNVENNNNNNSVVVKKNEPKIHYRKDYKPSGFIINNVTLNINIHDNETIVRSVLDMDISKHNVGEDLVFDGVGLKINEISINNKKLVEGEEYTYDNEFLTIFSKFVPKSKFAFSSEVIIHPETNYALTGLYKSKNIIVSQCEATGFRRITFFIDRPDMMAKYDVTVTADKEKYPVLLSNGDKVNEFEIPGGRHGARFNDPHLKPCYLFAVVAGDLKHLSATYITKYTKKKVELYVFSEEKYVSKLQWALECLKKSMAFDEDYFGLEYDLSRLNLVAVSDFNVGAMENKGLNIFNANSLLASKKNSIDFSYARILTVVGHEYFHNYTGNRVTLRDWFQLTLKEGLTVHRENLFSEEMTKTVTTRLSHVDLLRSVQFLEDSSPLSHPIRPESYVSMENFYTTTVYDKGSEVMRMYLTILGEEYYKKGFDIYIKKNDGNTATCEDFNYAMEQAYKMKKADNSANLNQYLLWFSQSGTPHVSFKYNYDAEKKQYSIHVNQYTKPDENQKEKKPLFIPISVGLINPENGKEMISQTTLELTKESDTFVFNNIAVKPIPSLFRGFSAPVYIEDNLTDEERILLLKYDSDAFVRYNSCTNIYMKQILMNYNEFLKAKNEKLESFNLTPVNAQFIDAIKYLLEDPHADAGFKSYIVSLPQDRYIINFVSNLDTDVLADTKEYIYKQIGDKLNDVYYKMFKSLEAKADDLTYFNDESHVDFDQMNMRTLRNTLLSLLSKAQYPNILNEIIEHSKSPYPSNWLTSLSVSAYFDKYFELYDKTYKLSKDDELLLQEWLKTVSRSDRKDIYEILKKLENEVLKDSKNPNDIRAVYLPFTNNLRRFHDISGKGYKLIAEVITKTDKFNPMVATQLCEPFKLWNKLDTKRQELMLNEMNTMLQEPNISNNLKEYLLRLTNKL
Kind of data set: malaria alanyl aminopeptidase activity blockers – biochemical, fluorogenic H-Leu-NHMec substrate, 1536-well (AID 1445). Details: species or system Plasmodium falciparum 3D7, 3D7.

The target in another data set is T2, Bcl-2-like protein 10 (Homo sapiens, UniProt Q9HD36).
T2 sequence (Q9HD36 whole entry): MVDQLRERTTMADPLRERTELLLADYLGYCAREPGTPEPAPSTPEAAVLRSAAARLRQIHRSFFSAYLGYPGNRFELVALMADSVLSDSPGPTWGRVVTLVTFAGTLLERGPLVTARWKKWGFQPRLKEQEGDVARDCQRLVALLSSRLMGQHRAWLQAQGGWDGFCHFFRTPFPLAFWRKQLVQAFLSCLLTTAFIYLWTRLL
Kind of data set: Bcl-B/TR3 peptide binding disruption – biochemical, fluorescence polarization, FITC-TR3 peptide, selectivity assay for Bfl-1 inhibitor project, primary screen (AID 748).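 Further: fluorescence polarization from a fluorescein-labelled TR3 peptide binding purified Bcl-B.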 Background: In fluorescence polarisation assays a small probe gives low polarisation when free and higher when bound to something large.

Data set [3] has as its target Peroxisome proliferator-activated receptor gamma/Nuclear receptor coactivator 3 (Homo sapiens, UniProt P37231). In kind it is functional.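 Further: agonist potency for raising coactivator recruitment to the receptor.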
The target of data set [4] is Peroxisome proliferator-activated receptor gamma/Nuclear receptor coactivator 2 (Homo sapiens, UniProt P37231). In kind it is functional.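 Further: agonist potency for raising coactivator recruitment to the receptor.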
Sequence of Peroxisome proliferator-activated receptor gamma/Nuclear receptor coactivator 2 (P37231 whole entry): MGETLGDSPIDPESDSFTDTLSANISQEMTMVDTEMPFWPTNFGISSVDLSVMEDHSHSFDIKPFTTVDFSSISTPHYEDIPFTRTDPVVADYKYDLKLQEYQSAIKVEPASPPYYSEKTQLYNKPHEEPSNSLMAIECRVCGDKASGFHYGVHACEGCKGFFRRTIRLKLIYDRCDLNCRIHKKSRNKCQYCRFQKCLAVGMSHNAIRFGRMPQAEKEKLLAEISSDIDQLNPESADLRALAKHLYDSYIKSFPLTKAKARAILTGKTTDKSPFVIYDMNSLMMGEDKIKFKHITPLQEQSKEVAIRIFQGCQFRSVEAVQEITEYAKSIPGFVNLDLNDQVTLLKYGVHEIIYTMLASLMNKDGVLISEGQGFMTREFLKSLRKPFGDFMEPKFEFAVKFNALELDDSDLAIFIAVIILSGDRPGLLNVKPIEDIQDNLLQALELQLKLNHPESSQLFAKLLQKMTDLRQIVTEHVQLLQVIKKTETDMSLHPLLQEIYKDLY
Sequence of Peroxisome proliferator-activated receptor gamma/Nuclear receptor coactivator 2 (Q15596 whole entry, further chain): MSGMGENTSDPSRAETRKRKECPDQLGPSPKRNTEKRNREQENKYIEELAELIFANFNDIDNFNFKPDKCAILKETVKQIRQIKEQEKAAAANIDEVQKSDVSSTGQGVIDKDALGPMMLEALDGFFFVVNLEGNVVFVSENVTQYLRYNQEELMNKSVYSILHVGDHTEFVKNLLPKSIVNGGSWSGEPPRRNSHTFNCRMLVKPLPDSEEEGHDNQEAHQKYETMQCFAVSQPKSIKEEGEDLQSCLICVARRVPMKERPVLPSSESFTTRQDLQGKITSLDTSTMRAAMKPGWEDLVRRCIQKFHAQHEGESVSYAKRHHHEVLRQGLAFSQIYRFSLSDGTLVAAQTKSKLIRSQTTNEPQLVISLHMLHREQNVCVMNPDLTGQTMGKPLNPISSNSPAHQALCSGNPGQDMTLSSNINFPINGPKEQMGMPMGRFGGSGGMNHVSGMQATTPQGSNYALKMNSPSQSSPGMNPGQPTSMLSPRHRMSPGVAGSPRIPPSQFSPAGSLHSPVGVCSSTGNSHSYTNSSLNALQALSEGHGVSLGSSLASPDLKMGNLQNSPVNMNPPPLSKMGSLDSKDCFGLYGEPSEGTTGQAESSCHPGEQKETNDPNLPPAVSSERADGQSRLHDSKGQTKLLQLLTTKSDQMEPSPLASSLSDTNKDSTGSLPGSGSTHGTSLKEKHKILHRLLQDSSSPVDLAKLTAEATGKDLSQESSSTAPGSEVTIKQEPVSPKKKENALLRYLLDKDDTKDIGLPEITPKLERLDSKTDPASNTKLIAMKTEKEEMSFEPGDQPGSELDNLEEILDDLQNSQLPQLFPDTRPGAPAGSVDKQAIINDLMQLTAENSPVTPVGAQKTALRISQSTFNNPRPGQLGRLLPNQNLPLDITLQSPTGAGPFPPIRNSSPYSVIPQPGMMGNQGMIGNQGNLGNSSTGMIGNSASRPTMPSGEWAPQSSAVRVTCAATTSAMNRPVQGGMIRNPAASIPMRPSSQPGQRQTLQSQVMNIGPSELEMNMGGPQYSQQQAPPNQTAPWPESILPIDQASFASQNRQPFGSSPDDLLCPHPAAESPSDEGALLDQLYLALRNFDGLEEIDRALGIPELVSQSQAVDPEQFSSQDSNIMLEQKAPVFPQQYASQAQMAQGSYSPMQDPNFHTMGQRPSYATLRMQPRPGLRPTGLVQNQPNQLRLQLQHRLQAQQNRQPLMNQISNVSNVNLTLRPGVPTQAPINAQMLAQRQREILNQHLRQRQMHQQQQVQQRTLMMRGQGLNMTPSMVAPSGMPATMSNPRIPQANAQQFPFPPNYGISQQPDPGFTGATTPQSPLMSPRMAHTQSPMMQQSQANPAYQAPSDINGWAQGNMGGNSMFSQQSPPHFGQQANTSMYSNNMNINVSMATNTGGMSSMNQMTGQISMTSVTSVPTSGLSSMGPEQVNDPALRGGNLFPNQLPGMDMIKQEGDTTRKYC
The target of data set [5] is Peroxisome proliferator-activated receptor gamma/Nuclear receptor coactivator 1 (Homo sapiens, UniProt P37231). In kind it is functional.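 Further: agonist potency as compounds enhance coactivator SRC-1 recruitment to PPARgamma.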
Sequence of Peroxisome proliferator-activated receptor gamma/Nuclear receptor coactivator 1 (P37231 whole entry): as the sequence (P37231 whole entry) above
Sequence of Peroxisome proliferator-activated receptor gamma/Nuclear receptor coactivator 1 (Q15788 whole entry, further chain): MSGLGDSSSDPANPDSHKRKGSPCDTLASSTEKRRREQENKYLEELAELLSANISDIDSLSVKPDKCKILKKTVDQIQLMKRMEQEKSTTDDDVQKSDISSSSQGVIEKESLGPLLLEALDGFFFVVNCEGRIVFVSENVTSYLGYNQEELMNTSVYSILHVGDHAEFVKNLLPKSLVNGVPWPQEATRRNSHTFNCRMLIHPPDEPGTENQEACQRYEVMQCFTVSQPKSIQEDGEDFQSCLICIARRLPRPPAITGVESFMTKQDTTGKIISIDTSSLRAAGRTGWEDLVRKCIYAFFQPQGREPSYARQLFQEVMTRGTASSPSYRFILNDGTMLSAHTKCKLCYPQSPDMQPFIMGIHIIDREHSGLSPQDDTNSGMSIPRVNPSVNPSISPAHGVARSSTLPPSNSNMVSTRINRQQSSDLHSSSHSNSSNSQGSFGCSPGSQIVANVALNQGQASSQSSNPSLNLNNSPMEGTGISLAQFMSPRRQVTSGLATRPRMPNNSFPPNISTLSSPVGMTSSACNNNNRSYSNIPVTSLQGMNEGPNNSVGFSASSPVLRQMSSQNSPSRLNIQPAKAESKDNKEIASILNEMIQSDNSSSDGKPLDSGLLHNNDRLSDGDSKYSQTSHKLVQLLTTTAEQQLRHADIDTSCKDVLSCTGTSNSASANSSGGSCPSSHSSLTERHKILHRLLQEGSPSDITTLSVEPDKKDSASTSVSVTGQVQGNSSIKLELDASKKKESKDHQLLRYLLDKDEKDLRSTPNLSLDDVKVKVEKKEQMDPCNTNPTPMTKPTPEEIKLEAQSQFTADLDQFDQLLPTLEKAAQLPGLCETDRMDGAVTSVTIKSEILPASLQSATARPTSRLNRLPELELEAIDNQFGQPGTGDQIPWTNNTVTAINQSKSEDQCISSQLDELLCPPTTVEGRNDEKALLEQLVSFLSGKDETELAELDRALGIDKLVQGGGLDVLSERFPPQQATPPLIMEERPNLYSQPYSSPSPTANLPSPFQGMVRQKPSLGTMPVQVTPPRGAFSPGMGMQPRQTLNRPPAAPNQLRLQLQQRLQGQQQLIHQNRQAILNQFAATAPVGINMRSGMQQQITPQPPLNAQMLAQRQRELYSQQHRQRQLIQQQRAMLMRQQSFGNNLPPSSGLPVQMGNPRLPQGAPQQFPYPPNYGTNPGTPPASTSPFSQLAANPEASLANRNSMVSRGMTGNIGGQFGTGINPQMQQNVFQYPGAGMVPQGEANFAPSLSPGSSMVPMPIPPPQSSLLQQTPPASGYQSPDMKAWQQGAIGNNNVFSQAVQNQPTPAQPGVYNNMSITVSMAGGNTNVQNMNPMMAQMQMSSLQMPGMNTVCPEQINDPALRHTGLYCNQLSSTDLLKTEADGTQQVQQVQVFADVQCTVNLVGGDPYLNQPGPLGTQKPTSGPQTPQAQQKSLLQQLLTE
Data set [6] deals with T3, Short transient receptor potential channel 4 (Mus musculus, UniProt Q9QUQ5).
T3 sequence (Q9QUQ5 whole entry): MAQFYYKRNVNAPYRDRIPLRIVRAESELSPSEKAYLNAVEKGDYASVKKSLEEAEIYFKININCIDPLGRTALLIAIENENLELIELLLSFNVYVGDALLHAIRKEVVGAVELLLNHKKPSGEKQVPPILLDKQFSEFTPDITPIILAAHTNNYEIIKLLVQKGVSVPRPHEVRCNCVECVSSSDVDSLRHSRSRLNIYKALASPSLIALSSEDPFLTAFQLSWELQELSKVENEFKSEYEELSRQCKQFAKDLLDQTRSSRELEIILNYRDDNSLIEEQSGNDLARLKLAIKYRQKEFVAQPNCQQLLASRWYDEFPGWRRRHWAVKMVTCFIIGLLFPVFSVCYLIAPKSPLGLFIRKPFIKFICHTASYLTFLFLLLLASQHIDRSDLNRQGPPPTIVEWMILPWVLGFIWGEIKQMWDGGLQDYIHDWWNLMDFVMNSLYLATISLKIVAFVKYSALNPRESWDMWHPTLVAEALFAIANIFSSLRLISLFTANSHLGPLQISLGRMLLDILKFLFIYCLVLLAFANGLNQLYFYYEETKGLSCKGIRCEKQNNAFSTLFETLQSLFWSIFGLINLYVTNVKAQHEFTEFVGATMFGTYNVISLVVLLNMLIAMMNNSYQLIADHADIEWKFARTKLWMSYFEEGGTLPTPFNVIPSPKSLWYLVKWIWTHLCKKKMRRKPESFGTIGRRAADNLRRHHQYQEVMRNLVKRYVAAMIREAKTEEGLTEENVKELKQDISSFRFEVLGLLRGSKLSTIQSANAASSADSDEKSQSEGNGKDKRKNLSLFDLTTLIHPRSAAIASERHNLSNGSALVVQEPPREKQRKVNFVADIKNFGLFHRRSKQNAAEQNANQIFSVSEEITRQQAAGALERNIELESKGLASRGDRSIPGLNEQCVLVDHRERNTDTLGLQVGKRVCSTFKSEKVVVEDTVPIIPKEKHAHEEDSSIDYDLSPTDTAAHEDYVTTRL
Kind of data set: calcium entry via TRPC4 opening agents – cell-based, HEK293 TRPC4/mu-opioid, Fluo-4 calcium, dose response (AID 434937). In kind it is functional.

The target in data set [7] is T4, Histone-lysine N-methyltransferase NSD2 (Homo sapiens, UniProt O96028).
T4 sequence (O96028 whole entry): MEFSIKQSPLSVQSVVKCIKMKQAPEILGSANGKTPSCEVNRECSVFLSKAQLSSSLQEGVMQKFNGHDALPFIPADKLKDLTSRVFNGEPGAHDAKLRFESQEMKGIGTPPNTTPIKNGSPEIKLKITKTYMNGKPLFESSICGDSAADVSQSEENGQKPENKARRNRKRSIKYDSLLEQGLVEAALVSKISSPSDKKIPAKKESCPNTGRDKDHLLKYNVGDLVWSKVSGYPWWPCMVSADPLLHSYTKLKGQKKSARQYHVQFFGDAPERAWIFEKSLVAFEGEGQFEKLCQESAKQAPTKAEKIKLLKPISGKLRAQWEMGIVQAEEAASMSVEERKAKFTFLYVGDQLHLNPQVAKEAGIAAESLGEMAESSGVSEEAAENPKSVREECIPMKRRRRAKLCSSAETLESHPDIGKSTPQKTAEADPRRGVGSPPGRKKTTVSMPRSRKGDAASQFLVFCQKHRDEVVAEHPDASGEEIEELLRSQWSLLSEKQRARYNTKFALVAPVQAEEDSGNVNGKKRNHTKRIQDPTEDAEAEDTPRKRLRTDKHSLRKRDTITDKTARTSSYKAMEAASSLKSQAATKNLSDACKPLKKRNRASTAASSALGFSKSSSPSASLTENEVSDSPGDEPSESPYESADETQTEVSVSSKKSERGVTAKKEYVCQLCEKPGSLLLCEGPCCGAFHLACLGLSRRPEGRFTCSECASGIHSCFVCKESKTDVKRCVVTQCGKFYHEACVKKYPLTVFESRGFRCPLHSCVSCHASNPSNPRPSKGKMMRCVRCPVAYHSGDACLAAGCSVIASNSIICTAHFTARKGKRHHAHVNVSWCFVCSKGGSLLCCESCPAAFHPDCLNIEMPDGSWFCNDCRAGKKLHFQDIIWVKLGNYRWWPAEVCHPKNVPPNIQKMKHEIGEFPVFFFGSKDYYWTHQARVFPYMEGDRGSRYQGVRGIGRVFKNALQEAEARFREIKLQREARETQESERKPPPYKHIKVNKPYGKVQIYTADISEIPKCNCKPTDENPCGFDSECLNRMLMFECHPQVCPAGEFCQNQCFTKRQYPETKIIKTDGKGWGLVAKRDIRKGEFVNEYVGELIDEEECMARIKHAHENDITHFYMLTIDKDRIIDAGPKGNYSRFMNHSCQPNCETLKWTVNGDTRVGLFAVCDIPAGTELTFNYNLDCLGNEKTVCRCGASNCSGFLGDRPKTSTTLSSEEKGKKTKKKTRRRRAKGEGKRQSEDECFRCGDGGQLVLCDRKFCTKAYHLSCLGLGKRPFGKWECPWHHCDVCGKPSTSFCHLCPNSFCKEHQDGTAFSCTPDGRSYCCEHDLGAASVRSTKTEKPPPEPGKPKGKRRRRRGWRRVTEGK
In kind it is biochemical.

Data set [8] in a line: fluconazole-exposed Candida albicans growth modulators – fluorescence, retest, confirmation (AID 2467). In kind it is functional, cell-based.
Data set [9] is described as follows: NIH-3T3 fibroblast cytotoxicity, dose response, cytotoxicity control, cell-based, fluorescence, Alamar Blue, secondary assay (AID 2327).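 Further: NIH-3T3 mouse fibroblasts cultured with fluconazole at 8 µg/mL.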 In kind it is functional. A general note: Resazurin is reduced to fluorescent resorufin, in cell work by metabolically active cells.
Data set [10] concerns the target T3, Short transient receptor potential channel 4. The data set can be described thus: block of DAMGO-driven TRPC4 calcium entry – cell-based, HEK293 TRPC4/mu-opioid, Fluo-4 calcium, dose response (AID 434942).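 Further: potency of inhibitors blocking the TRPC4 calcium response.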 In kind it is functional.

Sequence of Cytochrome P450 2C19 (P33261 whole entry): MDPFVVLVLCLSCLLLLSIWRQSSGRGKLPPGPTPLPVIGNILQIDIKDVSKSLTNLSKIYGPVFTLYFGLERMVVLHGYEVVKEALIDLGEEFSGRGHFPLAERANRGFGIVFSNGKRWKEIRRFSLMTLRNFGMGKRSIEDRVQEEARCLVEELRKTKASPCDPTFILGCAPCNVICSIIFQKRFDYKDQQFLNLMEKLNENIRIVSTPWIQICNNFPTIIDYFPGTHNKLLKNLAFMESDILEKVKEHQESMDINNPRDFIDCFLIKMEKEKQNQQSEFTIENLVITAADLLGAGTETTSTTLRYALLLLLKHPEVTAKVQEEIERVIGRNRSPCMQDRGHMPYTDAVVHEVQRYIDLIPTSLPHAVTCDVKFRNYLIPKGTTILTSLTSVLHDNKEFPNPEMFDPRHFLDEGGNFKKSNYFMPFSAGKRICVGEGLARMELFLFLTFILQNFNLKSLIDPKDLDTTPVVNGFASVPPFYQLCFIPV

With `C[C@H]1CC[C@H]2C(=O)N[C@H](Cc3ccccc3)C(=O)N2[C@@H]1c1ccccc1`, the figures for the concentration at half-maximal activity (AC50) on Cytochrome P450 2C19 and on Cytochrome P450 2C9 were 3.98 µM (inconclusive) and “inconclusive”, respectively.
Regarding `O=C(N/N=C/c1cc(Cl)ccc1O)c1ccccc1Br`, the concentration for a half-maximal effect (EC50) (as a rule, the concentration needed to bring the measured effect to its halfway point) in “cells [1]” was 14.7 µM (active); in “cells [2]”, > 350 µM (not active). Besides, the AC50 (usually the midpoint of the concentration-response curve, whichever way the signal moves) in the data set with INS1 is 2.29 µM (active). The IC50 (commonly the point on the concentration scale where inhibition reaches its midpoint) on Aminopeptidase N was 30.8 µM (active).
With `COc1cc(/C=N/NC(=O)[C@H](Cc2c[nH]c3ccccc23)NC(=O)OCC(C)C)cc([N+](=O)[O-])c1O`, at Aminopeptidase N, the half-maximal inhibitory concentration (IC50) was 12.2 µM (active).
`COc1ccc(S(=O)(=O)N2CCCC2C(=O)Nc2nnc(-c3cccnc3)s2)cc1` (stereo unspecified): the IC50 on Bcl-2-like protein 10 was > 100 µM (inactive).
Turning to `Nc1nc(C2CCCN2S(=O)(=O)c2ccc(Cl)cc2)cs1` (stereo unspecified), the EC50 in [3], in [4] and in [5] was > 79.4 µM (not active) in each case.
Take `Cc1cc(NC(=O)c2cnn3cccnc23)nn1CC(=O)Nc1cccnc1`: the EC50 in data set [6] is 4.22 µM (active).
Turning to `O=C(O)CCc1ccc(-c2cccs2)n1CCC(=O)O`, at Bcl-2-like protein 10, the IC50 was 77 µM (inactive).
Regarding `CC1=CN2C(=N)/C(=C/c3cc(Cl)c(O)c(Cl)c3)C(=O)N=C2S1`, the IC50 on Aminopeptidase N was 42 µM (active).
As to `Cn1c(=O)c2cc(S(=O)(=O)NCCC(=O)Nc3ccc(Cl)cc3)ccc2n(C)c1=O`, at Cytochrome P450 2C9, the concentration at half-maximal activity (AC50) result is on record as “inconclusive”.
For the compound `Cc1cccc(OCCOCCN2CCNCC2)c1C`, in [6], the EC50 was 1.19 µM (active).
`OCCC1CN(Cc2ccccc2-c2ccco2)CCN1Cc1ccccc1` (stereo unspecified): the EC50 in [6] is 5.31 µM (active).
On to `O=C(Nc1ccccc1)N1CC2(CCN(C(=O)c3cc(C(F)(F)F)cc(C(F)(F)F)c3)CC2)C1`, for which the half-maximal activity concentration (AC50) result on Cytochrome P450 2C9 is recorded as “inconclusive”.
`Cc1ccc(S(=O)(=O)NC2=NC(=O)/C(=C\c3cc(Br)cc(Br)c3O)S2)cc1`: the AC50 in [7] is 6.67 µM (active). In addition, the concentration giving a half-maximal response (EC50) in data set [8] is > 38 µM (not active); in data set [9] it was 9.99 µM (active); in data set [6], 10.6 µM (active).
As to `CCOC(=O)C1(CC2CC2)CCN(Cc2ccc3cccc(F)c3n2)CC1`, the figures for the EC50 in data set [10] and in data set [6] were 0.841 µM (active) and 2.66 µM (active), respectively.
As for `O=C(NCCCN1CCN(Cc2ccccc2)CC1)C1CCN(c2nnc(-n3cccc3)s2)CC1`, the IC50 on Bcl-2-like protein 10 is 62.8 µM (inactive).
For the compound `FC(F)(F)c1cnc(Nc2ccc(N3CCOCC3)cc2)c(Cl)c1`, the IC50 at Bcl-2-like protein 10 was 76.3 µM (inactive).
